What all share (assay): NCI tumour cell line growth inhibition, 48 h
The test system of assay [1] is MCF7.
In assay [2] the test system is MDA-MB-435.
For assay [3], the system named is HCT-15.
Assay [4] relates to Malme-3M.
In assay [5] the test system is DU-145.
Assay [6] has as its system SW-620.
Assay [7] has as its system A498.
Assay [8] relates to SK-MEL-2.
The test system of assay [9] is U-251.
Assay [10] concerns UACC-257.
For assay [11], the system named is HCT-116.
In assay [12] the test system is OVCAR-3.
Assay [13] has as its system OVCAR-4.
Assay [14] has as its system Hs-578T.
The subject of assay [15] is UO-31.
Assay [16] relates to RPMI-8226.
Assay [17] concerns K562.
The test system of assay [18] is NCI-H522.
For assay [19], the system named is SF-295.
For assay [20], the system named is HOP-92.

The text below walks through data of ChEMBL document CHEMBL1201862, “PubChem BioAssay data set” (2004).

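Assay format: 96-well plates, 48-hour exposure. GI50 marks 50% less growth.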 Active and inactive are the calls of the source. No stated cut-off is given here; in the data, active = GI50 up to about 1.1 µM and inactive = higher.

In the case of `Cc1cc(S(=O)(=O)Nc2nc(N)n(-c3ccccc3)n2)c(S)cc1Cl`, the GI50 in assay [1] is > 100 µM (inactive); in assay [2], > 100 µM (inactive); in assay [3], more than 100 µM; in assay [4] it was > 100 µM (inactive); in assay [5], > 100 µM (inactive); in [6] it was > 100 µM (inactive). Further, the GI50 in [7] is > 100 µM (inactive); in [8] it was > 100 µM (inactive); in [9], 60 µM (inactive); in [10] it was > 100 µM (inactive); in assay [11], > 100 µM (inactive); in assay [12], > 100 µM (inactive). In addition, the GI50 was > 100 µM (inactive) in assay [13]; 70 µM (inactive) in assay [14]; > 100 µM (inactive) in assay [15]; > 100 µM (inactive) in [16]; > 100 µM (inactive) in assay [17]; > 100 µM (inactive) in [18].

For the compound `NC(=O)/C(=C\c1ccncc1)c1cccc2ccccc12`, the GI50 in assay [1] was > 100 µM (inactive); in assay [2], > 100 µM (inactive); in assay [3], more than 100 µM; in [4] it was > 100 µM (inactive); in [5] it was 67.8 µM (inactive); in assay [6], > 100 µM (inactive). Moreover, the GI50 in assay [8] is > 100 µM (inactive); in [9], > 100 µM (inactive); in [10], < 0.01 µM (active); in [11] it was > 100 µM (inactive); in assay [12], > 100 µM (inactive); in assay [13] it was > 100 µM (inactive). In addition, the GI50 in assay [19], in assay [14], in [15], in assay [20], in [16] and in [17] was > 100 µM (inactive) each time. Moreover, in assay [18], the GI50 was > 100 µM (inactive).

In the case of `NC(Cc1ccc(OCc2ccccc2)cn1)C(=O)O` (stereo unspecified), the GI50 in assay [1] was > 100 µM (inactive); in assay [2], > 100 µM (inactive); in assay [3] it was more than 100 µM; in assay [4], > 100 µM (inactive); in assay [5] it was > 100 µM (inactive); in [6], > 100 µM (inactive). Also, the GI50 in [7], in assay [9], in assay [10], in assay [11], in assay [12] and in assay [19] was > 100 µM (inactive) in each case. The GI50 in assay [14], in assay [15], in assay [16], in [17] and in assay [18] was > 100 µM (inactive) each time.

For the compound `COc1ccc(N2CCN(c3ccc4c(c3)NCC(=O)N4)CC2)cc1`, the GI50 in assay [1] is > 100 µM (inactive); in assay [2], > 100 µM (inactive); in assay [3] it was 49.5 µM; in assay [4], 23.1 µM (inactive); in assay [5], > 100 µM (inactive); in assay [6] it was 61.5 µM (inactive). For the same compound, the GI50 in [8] is 37.3 µM (inactive); in [9] it was 25.6 µM (inactive); in [10] it was 95.5 µM (inactive); in [11], 42.5 µM (inactive); in assay [12] it was 28.8 µM (inactive); in assay [13], 32.1 µM (inactive). The GI50 in [19] was 69.2 µM (inactive); in assay [14], 25.3 µM (inactive); in [15] it was 26.9 µM (inactive); in assay [20], 23.5 µM (inactive); in [16] it was 21.4 µM (inactive); in [17], 28.8 µM (inactive). For the same compound, in assay [18], the GI50 is 14.6 µM (inactive).

With `CCOC(=O)/C(C(=O)Nc1ccc(F)cc1)=C(/N)N1CCCC1`, the GI50 in [1] is > 100 µM (inactive); in assay [2], > 100 µM (inactive); in assay [3], less than 0.01 µM; in assay [4], > 100 µM (inactive); in assay [5], > 100 µM (inactive); in assay [6], > 100 µM (inactive). Also, the GI50 in assay [7], in assay [8], in assay [9], in assay [10], in assay [11] and in assay [12] was > 100 µM (inactive) in each case. For the same compound, the GI50 in [13], in assay [19], in assay [14], in assay [16], in assay [17] and in [18] was > 100 µM (inactive) each time.

Take `CC12CCC(C/C1=N\NC(N)=O)C2(C)C` (stereo unspecified): the GI50 is > 100 µM (inactive) in assay [1]; > 100 µM (inactive) in [2]; more than 100 µM in assay [3]; > 100 µM (inactive) in assay [4]; > 100 µM (inactive) in assay [5]; > 100 µM (inactive) in [6]. The GI50 in [8], in assay [9], in assay [10], in [11], in assay [12] and in assay [13] was > 100 µM (inactive) in each case. The GI50 in assay [19], in [14], in [15], in [20], in [16] and in assay [17] was > 100 µM (inactive) each time. The GI50 in [18] is > 100 µM (inactive).

Take `Cc1nc(C)c(Cc2ccccc2)o1`: the GI50 in assay [1] is > 100 µM (inactive); in assay [2], > 100 µM (inactive); in [3] it was more than 100 µM; in [4] it was > 100 µM (inactive); in assay [5] it was > 100 µM (inactive); in assay [6] it was > 100 µM (inactive). Further, the GI50 in assay [7] was > 100 µM (inactive); in [9], > 100 µM (inactive); in [10] it was > 100 µM (inactive); in assay [11] it was > 100 µM (inactive); in [12], 98.2 µM (inactive); in [13], > 100 µM (inactive). For the same compound, the GI50 is > 100 µM (inactive) in [19]; > 100 µM (inactive) in [14]; 47.6 µM (inactive) in [15]; > 100 µM (inactive) in assay [17]; > 100 µM (inactive) in assay [18].

For `CN1C(=O)N(C)C(O)C(Cl)(Br)C1=O` (stereo unspecified), the GI50 was > 100 µM (inactive) in assay [1]; > 100 µM (inactive) in [2]; more than 100 µM in assay [3]; > 100 µM (inactive) in [4]; > 100 µM (inactive) in assay [5]; > 100 µM (inactive) in [6]. The GI50 in [7], in assay [8], in assay [9], in assay [10], in assay [11] and in assay [12] was > 100 µM (inactive) in each case. Further, the GI50 in assay [19], in assay [14], in assay [15], in assay [16], in [17] and in [18] was > 100 µM (inactive) each time.

`C[C@]12CCC(=O)C=C1CC[C@@H]1C2CC[C@]2(C)Nc3c(ncn3-c3ccc(F)cc3)CC12` (stereo partly specified): the GI50 in assay [1] was 18 µM (inactive); in [2], 12.6 µM (inactive); in [4] it was 18.9 µM (inactive); in assay [5], 23.7 µM (inactive); in assay [6], 31.6 µM (inactive); in assay [7], 22.3 µM (inactive). The GI50 was 20.9 µM (inactive) in assay [9]; 17.8 µM (inactive) in assay [10]; 15 µM (inactive) in assay [11]; 29.2 µM (inactive) in assay [12]; 28.2 µM (inactive) in [13]; 15.3 µM (inactive) in [19]. For the same compound, the GI50 in [14] is 16.3 µM (inactive); in [15], 27 µM (inactive); in assay [20], 33.2 µM (inactive); in assay [17], 5.82 µM (inactive); in assay [18], 15 µM (inactive).

On to `CCOC(=O)C1c2[nH]c3ccccc3c2CCN1C(=O)c1ccco1` (stereo unspecified), for which the GI50 in assay [1] is > 10 µM (inactive); in assay [2], > 10 µM (inactive); in assay [3] it was more than 10 µM; in assay [4] it was > 10 µM (inactive); in [5], > 10 µM (inactive); in [6] it was > 10 µM (inactive). Also, the GI50 in [7] was 9.73 µM (inactive); in assay [9], > 10 µM (inactive); in [10], > 10 µM (inactive); in [11] it was > 10 µM (inactive); in assay [12], > 10 µM (inactive); in assay [13] it was > 10 µM (inactive). In addition, the GI50 in assay [19], in assay [14], in assay [20], in assay [16] and in [17] was > 10 µM (inactive) in each case.

Turning to `N/C(=N\O)N/N=C/c1cc(I)cc(I)c1O`, the GI50 was 10 µM (inactive) in assay [1]; 69.5 µM (inactive) in [2]; 5.37 µM in assay [3]; 19.3 µM (inactive) in [4]; 31.6 µM (inactive) in assay [5]; > 100 µM (inactive) in assay [6]. The GI50 was > 100 µM (inactive) in assay [7]; 54.8 µM (inactive) in assay [8]; 34.8 µM (inactive) in assay [9]; 52.2 µM (inactive) in assay [10]; 23.7 µM (inactive) in [11]; 2.2 µM (inactive) in assay [12]. For the same compound, the GI50 was 27.6 µM (inactive) in [13]; 50.4 µM (inactive) in assay [19]; > 100 µM (inactive) in assay [14]; 43.2 µM (inactive) in assay [17]; 80.5 µM (inactive) in assay [18].
